Source: patent US12691065B2, “Liposome formulations for treatment of cancers and drug resistance of cancers” (NanoTech Pharma Inc., priority 2020, dated 2026)

Columns and labels:
MDA-MB-231(R) cells = assay: MTT cytotoxicity of DOX on MDA-MB-231 versus MDA-MB-231(R); format: cell-based, human; details: 48-hour DOX treatment, each dose level
Excerpt: Doxorubicin resistant cell lines of MDA-MB-231 and MCF-7 were developed in house. The resistant variants were generated by repeatedly culturing MDA-MB-231 and MCF-7 cells in the presence of 0.2 μmol/L DOX. These cells that proliferated well in the presence of doxorubicin after several passages qualified as DOX-resistant MDA-MB-231 and MCF-7 cells, which were named as MDA-MB-231(R) and MCF-7(R) cell lines, respectively. Both MDA-MB-231(R) and MCF-7(R) cell lines were characterized against non-DOX treated MDA-MB-231 and MCF-7 cell lines.
The cell seeded plate was incubated for 24 hours at 37° C. and 5% CO2 in a standard cell culture incubator before drug treatment. […] After another 24 hours of incubation, cell viability was assessed by the MTT assay following the manufacture's protocols. Relative percent survival was determined by subtracting absorbance values obtained by media-only wells from drug treated wells and then normalizing to the no-drug control wells (cell only control). The fraction of cells affected (Fa), or cell growth inhibition (%) at each drug concentration was subsequently calculated for each well. The effect of drug combinations was then calculated and processed by a software CompuSyn for drug synergy analysis. The program employs the median-effect analysis algorithm, which produces the Combination Index (CI) value as a quantitative indicator of the degree of synergy. […]

[1] = In-vivo pharmacokinetic study, intravenous; details: free drug solution, CD-1 mice
Excerpt: After intravenous administration, blood was collected at multiple time points for a week by cardiac puncture (3 mice per time point) and placed into EDTA coated micro containers. The samples were centrifuged to separate plasma, and plasma was transferred to another tube.

For `COc1cccc2c1C(=O)c1c(O)c3c(c(O)c1C2=O)C[C@@](O)(C(=O)CO)C[C@@H]3O[C@H]1C[C@H](N)[C@H](O)[C@H](C)O1.Cl` [DOX, Doxorubicin hydrochloride], the “cell viability of MDA-MB-231(R) compared to MDA-MB-231” value (MDA-MB-231(R) cells) was “markedly greater” and the “half-life (T1/2)” value [1] was 30 min.
